pIC50: −log10 of the molar value. Where a name gives a salt, the structure may show the parent alone. Read-outs that look alike come from different tables or passages of the source.
Columns and labels:
iNOS = iNOS (Homo sapiens, UniProt P35228); test: NOS activity: L-[3H]citrulline formation from L-[3H]arginine, iNOS; format: biochemical; settings: iNOS, 1 μM L-Arg, pH 7.5, room temperature, 30 minutes, read-out: iNOS (IC50)
Method: (§1) NOS activity is measured as the formation of L-[2,3,4,5-^3 H]Citrullinefrom L-[2,3,4,5-^3 H]Arginine. The incubation buffer (100 μL) contained; 100 mM TES, pH 7.5, 5 μM FAD, 5 μM FMN, 10 μM BH4, 0.5 mM NADPH, 0.5 mM DTT, 0.5 mg/mL BSA, 2 mM CaCl2, 10 μg/mL calmodulin (bovine), 1 μM L-Arg, 0.2 μCi L-[2,3,4,5-^3 H]Arg, and the inhibitor in aqueous DMSO (max. 5%). The reaction is initiated by addition of enzyme. Incubations are performed at room temperature for 30 minutes and stopped by the addition of an equal volume of quenching buffer consisting of 200 mM sodium citrate, pH 2.2, 0.02% sodium azide. Reaction products are separated by passing through a cation exchange resin and quantitated as cpm by scintillation counting.

ecNOS = ecNOS (Homo sapiens, UniProt P29474); test: NOS activity: L-[3H]citrulline formation from L-[3H]arginine, ecNOS; format: biochemical; settings: ecNOS, 1 μM L-Arg, pH 7.5, room temperature, 30 minutes, read-out: ecNOS (IC50)
Method: as §1

ncNOS = ncNOS (Homo sapiens, UniProt P29475); test: biochemical; settings: Table 2; ncNOS; 1 μM L-Arg, pH 7.5, room temperature, 30 minutes; read-out: ncNOS (IC50)
ncNOS, sequence (P29475 whole entry): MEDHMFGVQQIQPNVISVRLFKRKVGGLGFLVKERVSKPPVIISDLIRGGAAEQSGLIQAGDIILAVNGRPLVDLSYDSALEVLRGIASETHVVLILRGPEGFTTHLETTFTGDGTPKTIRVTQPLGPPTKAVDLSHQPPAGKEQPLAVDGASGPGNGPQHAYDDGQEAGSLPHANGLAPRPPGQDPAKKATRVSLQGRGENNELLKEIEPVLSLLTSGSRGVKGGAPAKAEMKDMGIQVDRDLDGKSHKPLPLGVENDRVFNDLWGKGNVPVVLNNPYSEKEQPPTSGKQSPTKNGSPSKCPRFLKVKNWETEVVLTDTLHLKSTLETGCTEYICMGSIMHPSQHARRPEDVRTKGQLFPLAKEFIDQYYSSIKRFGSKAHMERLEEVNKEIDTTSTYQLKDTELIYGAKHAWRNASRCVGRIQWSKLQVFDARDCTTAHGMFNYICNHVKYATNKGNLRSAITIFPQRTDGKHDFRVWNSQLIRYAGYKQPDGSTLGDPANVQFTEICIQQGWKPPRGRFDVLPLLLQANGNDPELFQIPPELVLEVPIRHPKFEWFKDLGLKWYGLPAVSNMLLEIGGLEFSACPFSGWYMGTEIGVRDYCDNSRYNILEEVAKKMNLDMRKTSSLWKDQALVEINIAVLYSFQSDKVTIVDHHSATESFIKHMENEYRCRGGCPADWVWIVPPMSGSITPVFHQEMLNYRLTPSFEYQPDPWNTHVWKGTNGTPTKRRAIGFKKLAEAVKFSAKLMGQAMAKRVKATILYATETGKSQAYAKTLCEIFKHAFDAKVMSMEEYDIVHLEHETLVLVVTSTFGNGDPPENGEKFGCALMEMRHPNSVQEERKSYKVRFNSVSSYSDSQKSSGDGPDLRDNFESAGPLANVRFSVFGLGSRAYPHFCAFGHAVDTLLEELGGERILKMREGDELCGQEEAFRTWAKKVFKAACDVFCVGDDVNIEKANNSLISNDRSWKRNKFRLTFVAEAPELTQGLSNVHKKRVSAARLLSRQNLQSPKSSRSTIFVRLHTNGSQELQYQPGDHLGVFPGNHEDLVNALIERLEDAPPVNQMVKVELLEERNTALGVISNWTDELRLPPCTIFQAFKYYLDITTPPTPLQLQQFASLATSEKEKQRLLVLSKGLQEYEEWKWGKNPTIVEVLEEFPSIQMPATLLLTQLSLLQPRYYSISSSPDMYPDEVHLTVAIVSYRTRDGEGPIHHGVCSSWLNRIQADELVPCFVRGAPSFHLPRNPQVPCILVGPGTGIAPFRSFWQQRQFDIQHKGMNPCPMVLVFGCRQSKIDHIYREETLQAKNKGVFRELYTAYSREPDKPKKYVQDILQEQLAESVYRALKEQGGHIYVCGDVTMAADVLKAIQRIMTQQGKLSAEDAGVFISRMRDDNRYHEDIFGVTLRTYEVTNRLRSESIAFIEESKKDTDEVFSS

Structure (SMILES)	pIC50 (iNOS; Table 2)	pIC50 (ecNOS; Table 2)	pIC50 (ncNOS)	pIC50 (iNOS; Table 1)	pIC50 (ecNOS; Table 1)
CCc1cc(C)cc(N)n1 [Example 54, 2-Amino-6-ethyl-4-methylpyridine]	> 6.00	> 6.00	> 6.00		
Cc1ccnc(N)c1NC(=O)NCc1ccccc1 [Example 19, 2-Amino-3-benzylurea-4-picoline]	> 5.00	< 4.30	< 4.30		
Cc1cnc(N)cc1C [Example 49, 2-Amino-4,5-dimethylpyridine hydrochloride]	> 6.00	> 6.00	> 6.00		
Nc1ccc(-c2ccccc2)cn1 [Example 39, 2-Amino-5-phenylpyridine]	< 4.30				
Cc1ccnc(N)c1N [Example 17, 2,3-Diamino-4-methylpyridine]				7.24	7.09
C#Cc1cnc(N)cc1C [Example 32, 2-Amino-5-ethynyl-4-methyl-pyridine]	> 5.00	> 4.30	> 4.30		
Cc1ccnc(N)c1CO [Example 23, 2-Amino-3-hydroxymethyl-4-picoline]	> 6.00	> 6.00			
Cc1cc(N)ncc1C#N [Example 42, 2-Amino-5-cyano-4-methylpyridine]	< 4.30				
Nc1nccc2c1CCCC2 [Example 65, 1-Amino-5,6,7,8-tetrahydroisoquinoline]	> 4.30	> 4.30	> 4.30		
Cc1cc(N)nc(CCCCC(=O)O)c1 [Example 74, 5-(6-Amino-4-methyl-2-pyridinyl)pentanoic acid hydrochloride]	> 5.00	> 6.00	> 5.00		
Nc1cccc(Cc2ccccc2)n1 [Example 61, 2-Amino-6-benzylpyridine]	> 4.30	< 4.30	> 4.30		
Cc1cnc(N)c(C)c1 [Example 50, 2-Amino-3,5-dimethylpyridine]	> 4.30	> 5.00	> 5.00		
Cc1cc(N)nc(C(C)C)c1 [Example 55, 2-Amino-4-methyl-6-(1-methylethyl)pyridine]	> 6.00	> 6.00	> 5.00		
Cc1cc(N)nc(CCCCc2ccccc2)c1 [Example 70, 2-Amino-4-methyl-6-(4-phenylbutyl)pyridine]	> 5.00	> 5.00	> 5.00		
COCc1c(C)ccnc1N [Example 25, 2-Amino-3-methoxymethyl-4-picoline dihydrochloride]	> 5.00	> 4.30	> 4.30		
Cc1ccnc(N)c1N(C)C [Example 27, 2-Amino-3-dimethylamino-4-picoline trihydrochloride]	> 4.30	< 4.30	> 4.30		
Cc1cc(N)nc(CCO)c1 [Example 58, 2-Amino-6-(2-hydroxyethyl)-4-methylpyridine]	> 6.00	> 6.00	> 6.00		
CCc1cccc(N)n1 [Example 52, 2-Amino-6-ethylpyridine]	> 6.00	> 6.00	> 6.00		
Cc1cc(N)nc(CCCc2ccccc2)c1 [Example 69, 2-Amino-4-methyl-6-(3-phenylpropyl)pyridine]	> 4.30	> 4.30	> 5.00		
COC(=O)c1cnc(N)cc1C [Example 44, 2-Amino-5-methoxycarbonyl-4-methylpyridine]	< 4.30				
Cc1cc(C)nc(N)c1 [Example 6]				6.97	
C=Cc1c(C)cc(N)nc1C [Example 37, 4,6-Dimethyl-5-ethenyl-2-aminopyridine]	> 5.00	> 5.00	> 6.00		
Cc1cc(N)nc(CC[C@@H](C)N)c1 [Example 77, (R)-2-Amino-6-(3-aminobutyl)-4-methylpyridine]	> 5.00	> 4.30	> 6.00		
CCc1ccc(N)nc1 [Example 60, 2-Amino-5-ethylpyridine]	> 5.00	> 4.30			
Nc1cc(C(F)(F)F)ccn1 [Example 8]				4.88	4.14

Structure (SMILES)	pIC50 (iNOS; Table 2)	pIC50 (ecNOS; Table 2)	pIC50 (ncNOS)	pIC50 (iNOS; Table 1)	pIC50 (ecNOS; Table 1)
Cc1cc(N)nc(CCC(C)C)c1 [Example 71, 2-Amino-4-methyl-6-(3-methylbutyl)pyridine]	> 6.00	> 5.00	> 6.00		
Cc1cc(N)nc(CCCN)c1 [Example 66, 2-Amino-6-(3-aminopropyl)-4-methylpyridine]	> 6.00	> 5.00	> 6.00		
Cc1cc(N)ncc1Br [Example 41, 2-Amino-5-bromo-4-methylpyridine]	> 5.00	> 5.00	> 5.00		
Cc1cc(N)nc(CC(C)C)c1 [Example 72, 2-Amino-4-methyl-6-(2-methylpropyl)pyridine]	> 6.00	> 6.00	> 6.00		
Nc1cc2c(cn1)CCCC2 [Example 64, 3-Amino-5,6,7,8-tetrahydroisoquinoline]	> 5.00				
CSc1ccnc(N)c1 [Example 35, 4-Methylthio-2-aminopyridine]	> 4.30	> 4.30	> 5.00		
CCc1c(C)ccnc1N [Example 24, 2-Amino-3-ethyl-4-picoline dihydrochloride]	> 5.00	> 5.00			
CSc1c(C)ccnc1N [Example 21, 2-Amino-3-methylthio-4-picoline]	> 4.30	> 4.30	> 5.00		
CC(=O)NCc1cnc(N)cc1C [Example 46, 2-Amino-5-acetamidomethyl-4-methylpyridine]	> 5.00	< 4.30	< 4.30		
Cc1cc(N)nc2c1CCCC2 [Example 63, 2-Amino-4-methyl-5,6,7,8-tetrahydroquinoline]	> 5.00	> 4.30	> 5.00		
Cc1cc(N)ncc1C(=O)O [Example 43, 2-Amino-5-carboxy-4-methylpyridine]	< 4.30	< 4.30	< 4.30		
N#Cc1ccnc(N)c1 [Example 16, 2-Amino-4-cyanopyridine]				< 4.30	
Cc1cccc(N)n1 [Example 5]					6.09
Cc1cc(N)ncc1-c1ccccc1 [Example 40, 2-Amino-4-methyl-5-phenylpyridine]	< 4.30				
Cc1ccc(N)nc1 [Example 4]				5.89	5.51
Nc1cc(-c2ccccc2)ccn1 [Example 11]				< 4.30	
Cc1ccnc(NCc2ccccc2)c1 [Example 18, 2-Benzylamino-4-methylpyridine]				5.62	> 4.30
CC(C)(C)c1ccnc(N)c1 [Example 14, 2-Amino-4-tert-butylpyridine]				< 4.30	
Cc1cccnc1N [Example 2]				5.47	5.92
Nc1cccnc1N [Example 10]				> 5.00	5.72
CCCc1c(C)ccnc1N [Example 26, 2-Amino-3-n-propyl-4-picoline dihydrochloride]	> 4.30				
Cc1ccnc(N)c1C [Example 13, 2-Amino-3,4-dimethylpyridine]				7.12	> 6.00
Cc1cc(N)ncc1CO [Example 47, 2-Amino-5-hydroxymethyl-4-methylpyridine]	> 5.00				
Nc1cc(Cc2ccccc2)ccn1 [Example 12]				< 4.30	

From patent publication US5972975A, “Substituted 2-aminopyridines as inhibitors of nitric oxide synthase” (priority 1997, dated 1999)
